# According to patent publication US20260028404A1 (UNIVERSITY OF KANSAS, priority 2022, published 2026):
# Legend:
# [1] = in vitro; cited from earlier work
# [2] = in vivo; cited from earlier work
# Ki-67 = Ki-67 IHC of pre- and post-treatment tumor specimens; format: in vivo, human; details: for Ki67 results, biopsy: before treatment
# Protocol: Ki-67 and Caspase-3 levels: To potentially detect an early signal for anti-tumoral efficacy of Copaxone® treatment, changes in the level of Ki-67 and caspase-3 before and after treatment with Copaxone® were evaluated by IHC. FFPE tumor sections from pre-and post-treatment specimens were mounted on the same slide and stained using Caspase 3 (Biocare, Pacheco, CA) and Ki-67 (MIB-1) (Dako, Carpinteria, CA).
# [3] = Window of opportunity trial: adverse events of intratumoral/peritumoral Copaxone injections; format: in vivo, human
# Protocol: Subjects whose tumors were accessible for intratumoral, percutaneous injection and were planned for surgery as the primary treatment were eligible if no other treatment between initial biopsy and surgery was anticipated. During the treatment period, eligible subjects received Copaxone® at 40 mg intratumorally for up to 3 times a week and at least 48 hours apart until 24 hours before the planned surgery. This dosing regimen was consistent with the label for subcutaneous injections of Copaxone®.
# This study is an open label single arm window of opportunity trial in patients with resectable solid malignancies whose planned primary treatment is surgical resection conducted at the University of Kansas Cancer Center (KUCC). The patients had to be at least 18 years old with previously untreated histologically confirmed malignant tumor that is percutaneously accessible for intratumoral injection. The injectable tumor must be at least 5 mm in diameter using standard measuring tape. Pretreatment archival tumor tissue consisting of formalin-fixed, paraffin-embedded (FFPE) tumor tissue obtained from standard of care diagnostic biopsy must be available in order to be eligible for the trial. Patients whose lesions are in close proximity to vascular structures (i.e., carotid artery or tumors close to other vital organs such as the trachea), with mucosal lesions only, with known hypersensitivity to Copaxone or with a known condition that leads to immunosuppression such as AIDS or concurrent use of immunosuppressive therapy were considered ineligible. Approval for the study was granted through the institutional review board at University of Kansas Cancer Center and all patients provided written informed consent before study entry. This trial was performed according to the Declaration of Helsinki principles. The KUCC Data and Safety Monitoring Committee (DSMC) performed the oversight of the monitoring of participant safety, conduct and scientific progress of research protocols, and the validity and integrity of the data for clinical trials.
# Study treatment: Treatment was administered on an outpatient basis prior to surgery. […] Doses were administered at least 48 hours apart and the last dose given within 96 hours of surgery. This window of 96 hours was chosen because we hypothesized that any immune changes due to Copaxone may remain apparent within 96 hours. No dose adjustments, modifications or delays due to Copaxone® related toxicity were allowed.
# Efforts were made to administer the full dose into the lesion, unless it was deemed not practicable by the treating investigator. Tumors were injected using a 28-gauge or smaller needle. Glatiramer acetate (Copaxone®) was thoroughly distributed within the injected tumor using a “fanning method” (to distribute the injection across several angles throughout the lesion to maximize the spread of glatiramer acetate (Copaxone®) in the tumor). The use of local anesthetic prior to Copaxone injection was allowed.
# Safety Assessments: Adverse events were assessed at baseline, during Copaxone® dose administration and at time of surgery or end of treatment visit. The revised NCI Common Terminology Criteria for Adverse Events (CTCAE) version 5.0 was utilized for AE reporting and toxicity assessment. Complete blood count, chemistry and INR were done at baseline.
# A single-arm, open-label, preoperative window of opportunity trial was conducted to evaluate the feasibility, safety, and local effects of intratumoral/peritumoral injections of Copaxone®. Subjects whose tumors were accessible for intratumoral, percutaneous injection and were planned for surgery as the primary treatment were eligible if no other treatment between initial biopsy and surgery was anticipated. During the treatment period, eligible subjects received Copaxone® at 40 mg intratumorally for up to 3 times a week and at least 48 hours apart until 24 hours before the planned surgery. […]
# CT26wt tumors = assay: Example 6 syngeneic CT26wt model with anti-mPD-L1; format: in vivo, BALB/c mice; details: of 8 animals on Day 0
# Protocol: FIG. 14. […] Female BALB/c mice were implanted with CT26wt tumor cells into the mammary fat pad on Day 0 and were treated as depicted in the figure legends. […] The number of animals alive on Days 0 (implantation) and 45 (study termination), are shown for each group in parenthesis.
# Each experimental group contained eight female BALB/c mice after randomization. On Day 0, 0.5×10^6 CT26wt murine colon adenocarcinoma tumor cells in 100 μl PBS were implanted into the left mammary fat pad of each mouse.
# After animals had been randomized on Day 6, treatments were initiated on the same day. […] All groups were evaluated versus the Control, which were animals that had been treated with 25 μl/mouse Vehicle Control (4% mannitol) i.t. in combination with 10 mg/kg Isotype Control i.p.
# During the course of the study, individual animals were either euthanized prior to study end without performing a necropsy, after they had reached humane endpoint, or were found dead. On Day 45, the study was terminated and all remaining animals were euthanized without performing a necropsy.
# Clone M3 tumors = assay: Cloudman M3 (Clone M3) melanoma model; format: in vivo, DBA/2N mice; details: through 21 days; 2 mg GA IT x5, 10 mg/kg antibody IP x3
# Protocol: Mice were randomized into treatment groups when tumors reached mean volumes of 50-80 mm^3 at Day 7.
# Treatment groups consisted of vehicle control (n=7, 4% mannitol IT plus 10 mg/kg isotype control antibody IP), anti-PD1 alone (n=5, 4% mannitol IT plus 10 mg/kg anti-PD1 IP), GA alone (2 mg GA IT plus 10 mg/kg isotype control IP), or GA+anti-PD1 combination (n=5, 2 mg GA IT plus 10 mg/kg anti-PD1 IP). Intratumoral treatments were administered 5 times at a frequency of 3 times per week and 50 μL per injection beginning on Day 7. Intraperitoneal antibody was given beginning on Day 7 as well, but for a total of 3 times on a frequency of every 3-4 days.
# Primary tumors were measured by caliper measurement. Tumor sizes were
# calculated according to the formula (W^2×L)/2. Animals were euthanized when any tumor diameter dimension exceeded 1.8 cm.
substance,measurement,setting,value
Glatiramer acetate [GA],aggregation in the presence of hyaluronic acid (HA),[1],form aggregates and precipitate in the presence of HA
same,systemic exposure,[2],negligible systemic exposure
same,"Ki67 results, treated","Ki-67; patient BCCa-Left Nasal Ala, after 2 Copaxone injections",60%
same,"Ki67 results, biopsy",Ki-67; patient BCCa-Left Nasal Ala,65%
same,"Ki67 results, treated","Ki-67; patient BCCa-Right Flank, after 3 Copaxone injections",44%
same,"Ki67 results, biopsy",Ki-67; patient BCCa-Right Flank,62%
same,"Ki67 results, treated","Ki-67; patient BCCa-Right Post. Neck, after 2 Copaxone injections",45%
same,"Ki67 results, biopsy",Ki-67; patient BCCa-Right Post. Neck,70%
same,"Ki67 results, treated","Ki-67; patient SCCa-Right Cheek, after 1 Copaxone injection",45%
same,"Ki67 results, biopsy",Ki-67; patient SCCa-Right Cheek,55%
same,"Ki67, marker of cell proliferation (overall)","Ki-67; patients, biopsy vs treated tumor",Consistent reductions in Ki67
same,injection site reactions (overall),"[3]; intratumoral/peritumoral injection, patients",Injection site reactions were observed in and around tumor tissues
same,grade 2 or higher adverse events,"[3]; nine patients, Copaxone 40 mg intratumoral",no grade 2 or higher adverse events
same,treatment related adverse events reported (number),"[3]; nine patients, Copaxone 40 mg intratumoral, 1-3 injections",3
same,grade of treatment related adverse events,"[3]; nine patients, Copaxone 40 mg intratumoral, CTCAE v5.0",grade 1
same,Injection Site Reaction,"[3]; patient BCCa-Left Nasal Ala, 2 Copaxone injections",Grade 1-Mild
same,Injection Site Reaction,"[3]; patient BCCa-Left Nasal Ala, 2 Copaxone injections, listed as Copaxone",grade 1 injection site reaction described as pressure and itching
same,Injection Site Reaction,"[3]; patient BCCa-Right Flank, 3 Copaxone injections",1st inj. - Pain
same,Injection Site Reaction,"[3]; patient BCCa-Right Post. Neck, 2 Copaxone injections",Grade 1-Mild
same,Injection Site Reaction,"[3]; patient BCCa-Right Post. Neck, 2 Copaxone injections, listed as Copaxone",grade 1 burning with injection of lidocaine
same,Injection Site Reaction,"[3]; patient Melanoma-Left Scalp, 2 Copaxone injections",None
same,Injection Site Reaction,"[3]; patient Melanoma-Mid Back, 2 Copaxone injections",None
same,Injection Site Reaction,"[3]; patient SCCa-Right Cheek, 1 Copaxone injection",None
same,tolerability of intratumoral injections,[3]; patients,well tolerated
same,number of animals alive on Day 45 (study termination),CT26wt tumors,0
same,mouse survival (not exceeding 1750 mm^3 tumor volume or 1.8 cm diameter),Clone M3 tumors,three of five
